In patent US5310929A, “Prodrugs of imidazole carboxylic acids as angiotensin II receptor antagonists” (E. I. Du Pont de Nemours and Company, priority 1992, dated 1994):

Legend:
[1] = target: AII receptor; assay: Ligand-receptor binding assay, displacement of [125I]AII from rat adrenal cortex particulate fraction; conditions: 0.05 nM [125I]AII, 1 h incubation, read-out: Angiotensin II Receptor Binding IC50
Procedure: Angiotensin-II (AII) produces numerous biological responses (e.g. vasoconstriction) through stimulation of its receptors on cell membranes. […] After a 1 h incubation the reaction was terminated by addition of cold assay buffer. The bound and free radioactivity were rapidly separated through glass-fiber filters, and the trapped radioactivity was quantitated by scintillation counting.

[2] = tested on: Renal Hypertensive Rats; assay: Antihypertensive effect in awake renal hypertensive rats (ligation of left renal artery); format: in vivo, rat; conditions: for ED30: Rattus norvegicus, oral, read-out: Oral Antihypertensive Effects in Renal Hypertensive Rats ED30
Text: This procedure increases blood pressure by increasing renin production with consequent elevation of AII levels. […] Arterial blood pressure is continuously measured directly through a carotid artery cannula and recorded using a pressure transducer and a polygraph. Blood pressure levels after treatment are compared to pretreatment levels to determine the antihypertensive effects of the compounds.

IC50 [1] | Compound | ED30 [2] | Oral Antihypertensive Effects in Renal Hypertensive Rats ED30 [2]
100 nM | CCCc1nc(CC)c(C(=O)OCN(C)C)n1Cc1ccc(-c2ccccc2-c2nnn[nH]2)cc1 [Example 2, (N,N-Dimethylamino)methyl 4-ethyl-2-propyl-1-[[2'-(tetrazol-5-yl)biphenyl-4-yl]methyl]imidazole-5-carboxylate] | – | –
3 nM | CCCc1nc(CC)c(C(=O)OCOC(=O)OC)n1Cc1ccc(-c2ccccc2-c2nn[nH]n2)cc1 [Example 7] | – | –
4 nM | CCCc1nc(CC)c(C(=O)OC(C)OC(=O)OC)n1Cc1ccc(-c2ccccc2-c2nn[nH]n2)cc1 (stereo not drawn) [Example 11] | 0.02 mg/kg | –
3 nM | CCCc1nc(CC)c(C(=O)OCc2oc(=O)oc2C)n1Cc1ccc(-c2ccccc2-c2nn[nH]n2)cc1 [Example 13, 1,3-Dioxa-5-methyl-cyclopenten-2-one-4-ylmethyl 4-ethyl-2-propyl-1-[[2'-(tetrazol-5-yl)biphenyl-4-yl]methyl]imidazole-5-carboxylate] | 0.1 mg/kg | –
3 nM | CCCc1nc(CC)c(C(=O)OCc2oc(=O)oc2C(C)(C)C)n1Cc1ccc(-c2ccccc2-c2nn[nH]n2)cc1 [Example 14, (5-(1.1-Dimethylethyl)-1.3-dioxa-cyclopenten-2-one-4-yl)methyl 4-ethyl-2-propyl-1-[[2'-(tetrazol-5-yl)biphenyl-4-yl)methyl]imidazole-5-carboxylate] | 0.3 mg/kg | –
6 nM | CCCc1nc(CC)c(C(=O)OCc2oc(=O)oc2-c2ccccc2)n1Cc1ccc(-c2ccccc2-c2nn[nH]n2)cc1 [Example 15] | 0.3 mg/kg | –
– | Methoxydimethylacetoxymethyl 4-ethyl-2-propyl-1-[[2'-(tetrazol-5-yl)biphenyl-4-yl]methyl]imidazole-5-carboxylate [Example 8] | – | 0.03 mg/kg

Compound | IC50 [1] | ED30 [2] | Oral Antihypertensive Effects in Renal Hypertensive Rats ED30 [2]
CCCc1nc(CC)c(C(=O)OCOC(=O)C(C)(C)C)n1Cc1ccc(-c2ccccc2-c2nnn[nH]2)cc1 [Example 5, Trimethylacetoxymethyl 4-ethyl-2-propyl-1-[[2'-(tetrazol-5-yl)biphenyl-4-yl]methyl]imidazole-5-carboxylate] | 2 nM | 0.03 mg/kg | –
CCCc1nc(CC)c(C(=O)OCOC(=O)OC(C)(C)C)n1Cc1ccc(-c2ccccc2-c2nnn[nH]2)cc1 [Example 9, t-Butoxycarbonyloxymethyl 4-ethyl-2-propyl-1-[[2'-(tetrazol-5-yl)biphenyl-4-yl]methyl]imidazole-5-carboxylate] | 6 nM | 0.02 mg/kg | –
CCCc1nc(CC)c(C(=O)OC(C)OC(=O)OC(C)(C)C)n1Cc1ccc(-c2ccccc2-c2nn[nH]n2)cc1 (stereo not drawn) [Example 12] | 5 nM | 0.3 mg/kg | –
Trimethylacetoxymethyl 4-ethyl-2-propyl-1-[[2'-(N-trimethylacetoxymethyl(tetrazol-5-yl))biphenyl- 4-yl]methyl]imidazole-5-carboxylate [Example 6] | 20 nM | – | –
